Converted amounts (≈) assume the structure as drawn. Read-outs that look alike come from different tables or passages of the source.
Legend:
[1] = target: T1, CIB1 and αIIb interaction (GST-CIB1 : F-αIIb peptide) (Homo sapiens, UniProt Q99828); experiment: FP assay, 384-well format (screen); type: binding; parameters: 384-well SCREEN Efficacy (%): concentration or dose not given beside the values; details: for 384-well SCREEN Confirm?: YES/NO
T1 construct: made in house; host or cells: BL-21 plus RIL cells (E. coli)
T1 sequence (Q99828 1-191): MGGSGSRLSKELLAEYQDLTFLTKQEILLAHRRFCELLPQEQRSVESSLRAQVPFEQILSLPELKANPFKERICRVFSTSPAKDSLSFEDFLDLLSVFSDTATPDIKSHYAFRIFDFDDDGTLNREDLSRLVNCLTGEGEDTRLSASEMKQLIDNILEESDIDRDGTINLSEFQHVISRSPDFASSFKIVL

CIB1 and αIIb peptide = target: T2, CIB1 and αIIb peptide (Homo sapiens, UniProt Q99828); experiment: Intrinsic tryptophan fluorescence (ITF) assay
T2 sequence (Q99828 1-191): T1 sequence (Q99828 1-191)

[2] = target: T3, GST-CIB1 : F-scrambled peptide (Homo sapiens, UniProt Q99828); experiment: FP scrambled-peptide counter screen, 1536-well format; type: binding; details: for COUNTERSCREEN Confirm?: YES/NO call
T3 construct: made in house; host or cells: BL-21 plus RIL cells (E. coli)
T3 sequence (Q99828 1-191): T1 sequence (Q99828 1-191)

[3] = In vitro ADME: PAMPA permeability
[4] = In vitro ADME: solubility; type: physicochemical; details: read-out: Solubility
[5] = target: T4, CIB1 and αIIb interaction (CIB1-GST : F-αIIb peptide) (Homo sapiens, UniProt Q99828); experiment: FP assay, 1536-well qHTS format (primary and confirmatory screen); type: binding; details: for CONFIRMATORY SCREEN Confirm?: YES/NO call; for CONFIRMATORY SCREEN Efficacy (%) / Efficacy (%): negative = inhibition
T4 construct: made in house; host or cells: BL-21 plus RIL cells (E. coli)
T4 sequence (Q99828 1-191): T1 sequence (Q99828 1-191)

[6] = target: T5, GST-CIB1 : F-αIIb peptide (Homo sapiens, UniProt Q99828); experiment: FP assay in the presence of glutathione (GSH), thiol reactivity; type: binding; details: for GSH/CIB1 IC50 ratio: ratio of GSH (+) IC50 to GSH (-) IC50; for GSH Assay Result: thiol reactivity call: No change / Active
T5 construct: made in house; host or cells: BL-21 plus RIL cells (E. coli)
T5 sequence (Q99828 1-191): T1 sequence (Q99828 1-191)

[7] = target: T6, GST-CIB1:F-αIIb interaction (Homo sapiens, UniProt Q99828); experiment: Gel-based (in-gel) binding assay; details: 1 μM GST-CIB1, 400 nM F-αIIb; 60 μM, 1:2, 4-points
T6 construct: made in house; host or cells: BL-21 plus RIL cells (E. coli)
T6 sequence (Q99828 1-191): T1 sequence (Q99828 1-191)

washed human platelets = experiment: Human platelet aggregation assay (thrombin-induced); type: cell-based; details: for inhibition at 10 µM: Homo sapiens, Platelet, single concentration of 10 μM (n = 3), thrombin; for Thrombin Assay 10 µM (%): platelet aggregation inhibition at 10 µM
Description: A classical challenge in target-based drug discovery is moving from biochemical to cellular assay and the essential step of determining if the compounds of interest can perform in a cellular context. After characterization of the compounds in a series of biochemical assay formats, our next step was to assess their activity in a cellular environment. Our previous studies have shown that the interaction of the cytoplasmic domain of integrin αIIbβ3, a key regulator of platelet aggregation, with CIB1, is involved in downstream signaling in platelet activation and aggregation. We sought to determine whether our candidate compounds were inhibiting this interaction by evaluating them for platelet function in a human platelet aggregation assay. We prepared platelet-rich plasma (PRP) and washed the platelets as previously described[44] and then performed a platelet aggregation assay using the washed platelet suspensions (2 × 10^8/platelets/mL) followed by the recording of aggregation traces (see Materials and Methods Section). To induce platelet aggregation, 0.03 U/mL of thrombin, a physiological agonist of platelet activation, was used.
Figure 6 Effect of compounds on human platelet activation. Representative platelet aggregation tracings of washed human platelet suspensions pretreated for 30 min at 37 °C with vehicle (DMSO) or compounds at indicated concentrations followed by activation with thrombin (0.03–0.1 U/mL). Panel (A): NCGC00071855. Panel (B–D): NCGC00351170. Panel (E): CD62P exposure was in the presence of NCGC00351170. Data represents mean ± SEM, n = 4 individual experiments; ns = non significant *P < 0.05, ***P < 0.001, ****P < 0.0001.
Whole blood was drawn by venipuncture from healthy adult volunteers (of both gender and race) with informed consent. Approval was obtained from the institutional review boards of Thomas Jefferson University, according to the Declaration of Helsinki. Blood was collected in acidified citrate dextrose as an anticoagulant. Platelet-rich plasma (PRP) and washed platelets were prepared, as previously described.[44] Platelet aggregation was performed using washed platelet suspensions containing 2 × 10^8 platelets/mL using a Chrono-Log Lumi-Aggregometer (Chrono-Log), as described previously.[11] Aggregation traces were recorded by using Aggrolink software (Chrono-Log). Thrombin-induced P-selectin (CD62P) exposure was performed using Accuri C6 flowcytometer (BD Bioscience) as described previously.[11]
Figure S9: Effect of compounds on human platelet activation. Representative platelet aggregation
tracings of washed human platelet suspensions treated with vehicle (DMSO) or indicated
compounds at 10 μM for 30 minutes at 37 °C followed by activation with thrombin (0.03U/mL).

[8] = target: T3, GST-CIB1 : F-scrambled peptide; experiment: FP scrambled-peptide counter screen, 384-well format; type: binding; details: F-scrambled peptide; for 384-well COUNTERSCREEN Confirm?: *: Curve in opposite direction; for IC50: read-out: 384-well COUNTERSCREEN IC50
[9] = F-αIIb peptide, read-out: 384-well SCREEN IC50
[10] = scrambled-peptide counterscreen
[11] = scrambled-peptide counterscreen, qHTS curve class
[12] = scrambled-peptide counterscreen, read-out: COUNTERSCREEN IC50
[13] = confirmatory screen, qHTS curve class, negative sign = inhibitory curve
[14] = confirmatory screen, read-out: CONFIRMATORY SCREEN IC50
[15] = FP assay in the presence of glutathione (GSH +), read-out: GSH (+) Assay IC50
[16] = FP assay without glutathione (GSH -), read-out: GSH (-) Assay IC50
[17] = qHTS primary screen hits, Table S2
[18] = qHTS primary screen hits, Table S2, read-out: IC50
[19] = 384-well FP assay, Table 1, read-out: FP assay IC50
[20] = qHTS primary screen hits, Table S2, negative sign = inhibitory curve, several classes where COUNT > 1

O=C(c1cccs1)c1no[n+]([O-])c1C(=O)c1cccs1 [NCGC00071855-04]
384-well SCREEN Efficacy (%) ([1]; F-αIIb peptide): 76%
384-well SCREEN Confirm? ([1]; F-αIIb peptide): YES
IC50 [1, 9]: 7.9 µM
IC50 (CIB1 and αIIb peptide): 53.1 µM
COUNTERSCREEN Efficacy (%) [2, 10]: -36%
COUNTERSCREEN Confirm? [2, 10]: YES
COUNTERSCREEN Curve Class [2, 11]: -1.4
IC50 [2, 12]: 25.1 µM
Papp [3]: 156 ×10⁻⁶ cm/s
solubility [4]: 9 µg/mL (≈ 29.4 µM)
CONFIRMATORY SCREEN Confirm? ([5]; confirmatory screen): YES
CONFIRMATORY SCREEN Curve Class [5, 13]: -1.4
CONFIRMATORY SCREEN Efficacy (%) ([5]; confirmatory screen): -40%
IC50 [5, 14]: 5.6 µM
IC50 [6, 15]: 3.1 µM
IC50 [6, 16]: 6.3 µM
GSH/CIB1 IC50 ratio [6]: 0.5
GSH Assay Result [6]: No change
Active in Gel Assay? [7]: YES
Platelet Aggregation Result (washed human platelets; 10 μM compound): Active
384-well COUNTERSCREEN Efficacy (%) [8]: 50%
384-well COUNTERSCREEN Confirm? [8]: YES
IC50 [8]: 31.6 µM

COc1ccc(CNC(=O)c2nc(S(=O)(=O)Cc3ccccc3)ncc2Cl)cc1.O=C(O)C(F)(F)F [NCGC00117170-03]
384-well SCREEN Efficacy (%) ([1]; F-αIIb peptide): 56%
384-well SCREEN Confirm? ([1]; F-αIIb peptide): YES
IC50 [1, 9]: 7.1 µM
ITF IC50 (CIB1 and αIIb peptide): inactive
COUNTERSCREEN Efficacy (%) [2, 10]: -18%
COUNTERSCREEN Confirm? [2, 10]: YES
COUNTERSCREEN Curve Class [2, 11]: 4
CONFIRMATORY SCREEN Confirm? ([5]; confirmatory screen): YES
CONFIRMATORY SCREEN Curve Class [5, 13]: -1.4
CONFIRMATORY SCREEN Efficacy (%) ([5]; confirmatory screen): -29%
IC50 [5, 14]: 12.6 µM
Efficacy (%) ([5]; qHTS FP screen hits, Table S2): -38%
Curve Class ([5]; qHTS FP screen hits, Table S2, one class per curve where COUNT > 1, negative sign = inhibitory curve): -1.2
IC50 ([5]; qHTS FP screen hits, Table S2, read-out: IC50): 2 µM
IC50 [6, 15]: 4.1 µM
IC50 [6, 16]: 3.2 µM
GSH/CIB1 IC50 ratio [6]: 1.3
GSH Assay Result [6]: No change
Active in Gel Assay? [7]: YES
384-well COUNTERSCREEN Efficacy (%) [8]: 17%
384-well COUNTERSCREEN Confirm? [8]: YES
IC50 [8]: > 120 µM

Oc1ccc2ccccc2c1SSc1c(O)ccc2ccccc12 [NCGC00186047-02, IPA-3, reference compound]
384-well SCREEN Efficacy (%) ([1]; F-αIIb peptide): 76%
384-well SCREEN Confirm? ([1]; F-αIIb peptide): YES
IC50 [1, 9]: 1.3 µM
IC50 (CIB1 and αIIb peptide): 16.6 µM
COUNTERSCREEN Efficacy (%) [2, 10]: -34%
COUNTERSCREEN Confirm? [2, 10]: YES
COUNTERSCREEN Curve Class [2, 11]: -1.2
IC50 [2, 12]: 31.6 µM
CONFIRMATORY SCREEN Confirm? ([5]; confirmatory screen): YES
CONFIRMATORY SCREEN Curve Class [5, 13]: -1.4
CONFIRMATORY SCREEN Efficacy (%) ([5]; confirmatory screen): -74%
IC50 [5, 14]: 2.8 µM
Efficacy (%) [5, 17]: -21%
Curve Class ([5]; qHTS primary screen hits, Table S2, negative sign = inhibitory curve): -1.4
IC50 [5, 18]: 10.3 µM
IC50 [6, 15]: 0.326 µM
IC50 [6, 16]: 0.232 µM
GSH/CIB1 IC50 ratio [6]: 1.4
GSH Assay Result [6]: No change
shift in potency in the presence of GSH ([6]; with vs without 10 μM reduced GSH): no shift
Active in Gel Assay? [7]: YES
384-well COUNTERSCREEN Efficacy (%) [8]: 23%
384-well COUNTERSCREEN Confirm? [8]: YES
IC50 [8]: > 120 µM

Cc1ccccc1C(=O)c1no[n+]([O-])c1C(=O)c1ccccc1C.O=C(O)C(F)(F)F [NCGC00351166-01]
IC50 [1, 19]: 4.26 µM
COUNTERSCREEN Efficacy (%) [2, 10]: -24%
COUNTERSCREEN Confirm? [2, 10]: YES
COUNTERSCREEN Curve Class [2, 11]: 4
Papp [3]: < 1 ×10⁻⁶ cm/s
solubility [4]: 2 µg/mL
CONFIRMATORY SCREEN Confirm? ([5]; confirmatory screen): YES
CONFIRMATORY SCREEN Curve Class [5, 13]: -1.4
CONFIRMATORY SCREEN Efficacy (%) ([5]; confirmatory screen): -39%
IC50 [5, 14]: 12.6 µM
Efficacy (%) [5, 17]: -19%
Curve Class [5, 20]: -2.4
IC50 [5, 18]: 31.6 µM
inhibition at 10 µM (washed human platelets): 77%
Thrombin Assay 10 µM (%) (washed human platelets): 77%

O=C(c1ccccc1)c1no[n+]([O-])c1C(=O)c1ccccc1 [NCGC00351168-02]
IC50 [1, 19]: 7.85 µM
Efficacy (%) (counterscreen) ([2]; counterscreen): -34%
Curve Class (counterscreen) ([2]; counterscreen, qHTS curve class, negative sign = inhibitory curve): -1.4
IC50 ([2]; counterscreen, read-out: IC50 [μM] (counterscreen)): 25.1 µM
Papp [3]: 2 ×10⁻⁶ cm/s
solubility [4]: 26 µg/mL (≈ 88.4 µM)
Efficacy (%) (confirmatory screen) ([5]; confirmatory screen): -54%
Confirm? (confirmatory screen) ([5]; confirmatory screen, YES/NO): YES
Curve Class (confirmatory screen) [5, 13]: -2.2
IC50 ([5]; confirmatory screen, read-out: IC50 [μM] (confirmatory screen)): 31.6 µM
Efficacy (%) [5, 17]: -49%
Curve Class [5, 20]: -1.2
IC50 [5, 18]: 25.1 µM
inhibition at 10 µM (washed human platelets): 97%
Thrombin Assay 10 µM (%) (washed human platelets): 97%

— PMC11249646, “Small-Molecule Disruptors of the Interaction between Calcium- and Integrin-Binding Protein 1 and Integrin αIIbβ3 as Novel Antiplatelet Agents” (ACS Pharmacology & Translational Science, 2024)
